Measured values: article PMC10818749, “Toxicity Studies of Cardiac-Targeting Peptide Reveal a Robust Safety Profile” (Pharmaceutics, 2024)

What was measured:
cancer cell lines = settings: ref Saar and colleagues; cited from earlier work
HEK-Kv4.3/KChIP2 = HEK-Kv4.3/KChIP2 (Homo sapiens, UniProt Q9NS61+Q9UK17); assay: cell-based
CHO-KCNQ1/minK = CHO-KCNQ1/minK (Homo sapiens, UniProt P15382+P51787); settings: read-out: Estimated IC50 (reference compound); antagonist mode; Qube APC (1 conc.)
[1] = tested on: leukemia and peripheral blood monocyte cell line; design: method as in PMID 16137634; settings: 5 and 10 µM; ref [51]; cited from earlier work
[2] = target: T1, HEK-Nav1.5 (Late, Antagonist) (Homo sapiens, UniProt Q14524); format: cell-based; settings: antagonist mode; Qube APC (1 conc.); late current, 50nM ATXII; read-out: Estimated IC50 (reference compound)
T1 construct: CYL7004QB2DR (late); host or cells: HEK
T1 sequence (Q14524 whole entry): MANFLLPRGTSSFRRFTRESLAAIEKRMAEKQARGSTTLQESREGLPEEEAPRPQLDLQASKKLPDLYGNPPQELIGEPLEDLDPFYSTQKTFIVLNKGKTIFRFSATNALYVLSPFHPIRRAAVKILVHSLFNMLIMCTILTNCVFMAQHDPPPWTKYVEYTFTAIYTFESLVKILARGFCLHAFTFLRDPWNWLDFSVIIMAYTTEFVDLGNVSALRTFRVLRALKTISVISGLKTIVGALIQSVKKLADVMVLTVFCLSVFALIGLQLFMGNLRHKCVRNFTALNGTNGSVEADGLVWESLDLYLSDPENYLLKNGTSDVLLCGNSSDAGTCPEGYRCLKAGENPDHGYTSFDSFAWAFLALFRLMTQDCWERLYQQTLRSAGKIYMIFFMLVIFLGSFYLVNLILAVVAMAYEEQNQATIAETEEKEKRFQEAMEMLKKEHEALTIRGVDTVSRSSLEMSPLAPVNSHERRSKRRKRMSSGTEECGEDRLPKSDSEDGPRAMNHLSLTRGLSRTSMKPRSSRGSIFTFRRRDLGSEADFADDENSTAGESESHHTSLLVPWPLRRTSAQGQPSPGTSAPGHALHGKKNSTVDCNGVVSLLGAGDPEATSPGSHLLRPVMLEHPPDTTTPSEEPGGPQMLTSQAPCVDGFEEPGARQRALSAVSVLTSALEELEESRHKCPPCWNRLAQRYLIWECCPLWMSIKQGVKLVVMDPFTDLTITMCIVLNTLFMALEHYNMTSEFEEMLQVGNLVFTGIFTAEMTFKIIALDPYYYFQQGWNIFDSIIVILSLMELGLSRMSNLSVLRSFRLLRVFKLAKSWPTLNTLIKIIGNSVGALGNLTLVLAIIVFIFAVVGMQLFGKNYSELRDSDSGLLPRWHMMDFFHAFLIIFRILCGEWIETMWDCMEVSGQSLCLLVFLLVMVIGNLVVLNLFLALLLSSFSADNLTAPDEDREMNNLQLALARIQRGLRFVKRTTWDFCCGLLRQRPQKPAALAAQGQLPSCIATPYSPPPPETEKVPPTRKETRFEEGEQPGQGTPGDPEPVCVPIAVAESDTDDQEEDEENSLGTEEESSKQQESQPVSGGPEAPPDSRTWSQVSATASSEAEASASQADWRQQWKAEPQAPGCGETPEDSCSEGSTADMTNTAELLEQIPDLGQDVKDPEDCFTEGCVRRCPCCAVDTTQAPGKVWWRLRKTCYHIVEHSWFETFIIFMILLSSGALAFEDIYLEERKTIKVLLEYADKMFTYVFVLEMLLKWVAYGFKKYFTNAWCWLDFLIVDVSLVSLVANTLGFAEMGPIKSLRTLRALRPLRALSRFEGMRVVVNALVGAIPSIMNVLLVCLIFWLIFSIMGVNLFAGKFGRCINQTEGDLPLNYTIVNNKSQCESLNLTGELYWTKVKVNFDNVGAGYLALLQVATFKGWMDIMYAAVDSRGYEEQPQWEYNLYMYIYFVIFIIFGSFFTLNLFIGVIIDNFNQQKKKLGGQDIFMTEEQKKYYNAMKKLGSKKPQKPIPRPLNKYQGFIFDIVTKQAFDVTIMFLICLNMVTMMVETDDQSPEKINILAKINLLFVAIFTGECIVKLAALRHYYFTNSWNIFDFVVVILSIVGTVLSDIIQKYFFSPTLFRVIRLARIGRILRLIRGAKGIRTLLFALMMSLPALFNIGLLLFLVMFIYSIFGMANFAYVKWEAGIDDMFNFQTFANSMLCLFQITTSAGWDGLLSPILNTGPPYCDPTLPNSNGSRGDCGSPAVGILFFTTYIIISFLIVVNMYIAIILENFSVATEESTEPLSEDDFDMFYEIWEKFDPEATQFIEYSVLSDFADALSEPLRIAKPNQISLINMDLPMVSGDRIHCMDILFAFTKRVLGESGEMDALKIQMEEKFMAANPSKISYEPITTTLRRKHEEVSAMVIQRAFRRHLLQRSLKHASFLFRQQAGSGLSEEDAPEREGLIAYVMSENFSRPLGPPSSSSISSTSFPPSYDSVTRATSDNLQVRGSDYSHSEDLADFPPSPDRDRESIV

HEK-Kir2.1 = target: T2, HEK-Kir2.1 (Homo sapiens, UniProt P63252); format: cell-based; settings: read-out: Estimated IC50 (reference compound)
T2 construct: host or cells: HEK
T2 sequence (P63252 whole entry): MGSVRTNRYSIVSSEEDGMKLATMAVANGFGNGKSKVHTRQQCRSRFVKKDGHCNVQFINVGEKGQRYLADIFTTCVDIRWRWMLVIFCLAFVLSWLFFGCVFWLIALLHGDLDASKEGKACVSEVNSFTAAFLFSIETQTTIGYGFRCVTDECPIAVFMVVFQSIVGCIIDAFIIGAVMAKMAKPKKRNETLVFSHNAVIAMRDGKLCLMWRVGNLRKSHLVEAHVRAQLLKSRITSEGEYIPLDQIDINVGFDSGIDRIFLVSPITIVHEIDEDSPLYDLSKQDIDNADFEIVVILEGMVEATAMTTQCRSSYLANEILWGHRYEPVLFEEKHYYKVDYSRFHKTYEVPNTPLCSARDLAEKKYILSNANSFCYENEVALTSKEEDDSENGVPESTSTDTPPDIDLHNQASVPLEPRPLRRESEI

Sequence of HEK-Kv4.3/KChIP2 (Q9UK17 whole entry): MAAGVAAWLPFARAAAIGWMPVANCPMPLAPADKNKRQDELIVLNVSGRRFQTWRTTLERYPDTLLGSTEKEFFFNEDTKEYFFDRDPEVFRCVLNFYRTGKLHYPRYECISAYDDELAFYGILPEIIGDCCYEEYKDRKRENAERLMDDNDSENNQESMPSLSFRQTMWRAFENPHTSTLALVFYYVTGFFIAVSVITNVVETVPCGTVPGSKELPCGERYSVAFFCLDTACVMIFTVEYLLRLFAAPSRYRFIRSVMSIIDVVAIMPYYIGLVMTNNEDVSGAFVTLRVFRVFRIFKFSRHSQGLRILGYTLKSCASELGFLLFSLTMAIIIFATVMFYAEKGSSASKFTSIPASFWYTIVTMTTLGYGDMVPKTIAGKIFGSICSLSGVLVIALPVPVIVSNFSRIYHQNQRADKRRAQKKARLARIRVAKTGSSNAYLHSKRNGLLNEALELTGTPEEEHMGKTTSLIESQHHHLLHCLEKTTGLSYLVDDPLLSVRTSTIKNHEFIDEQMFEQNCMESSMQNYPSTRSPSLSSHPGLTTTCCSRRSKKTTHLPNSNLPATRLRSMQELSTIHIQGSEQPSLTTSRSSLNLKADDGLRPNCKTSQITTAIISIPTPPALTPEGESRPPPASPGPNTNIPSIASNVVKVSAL
Sequence of HEK-Kv4.3/KChIP2 (Q9NS61 whole entry partner): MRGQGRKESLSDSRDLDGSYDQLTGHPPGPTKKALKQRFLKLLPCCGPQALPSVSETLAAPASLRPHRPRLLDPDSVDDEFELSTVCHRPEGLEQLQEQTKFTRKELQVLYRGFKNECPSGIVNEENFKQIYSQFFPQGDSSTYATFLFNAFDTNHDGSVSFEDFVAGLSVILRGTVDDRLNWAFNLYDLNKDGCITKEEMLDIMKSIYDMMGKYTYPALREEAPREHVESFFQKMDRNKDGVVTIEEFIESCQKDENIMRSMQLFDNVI

Molecule: pVEC: well-characterized, non-cell-specific CPP (TLLIILRRRIRKQAHAHS; UniProt P55284 615-632, looked up, fragment)
- membrane leakage of lactate dehydrogenase (cancer cell lines): minimal membrane leakage of lactate dehydrogenase

Molecule: O=C(NCC1CCCCN1)c1cc(OCC(F)(F)F)ccc1OCC(F)(F)F (stereo not shown) [Flecainide]
- IC50 (HEK-Kv4.3/KChIP2): 12.5 µM

Molecule: CCS(=O)(=O)N(C)[C@H]1c2cc(C#N)ccc2OC(C)(C)[C@@H]1O (racemic) [Chromanol 293B, reference compound]
- IC50 (CHO-KCNQ1/minK): 21.5 µM

Molecule: transportan 10
- cytokine release [1]: no increase in cytokine levels
- membrane leakage of lactate dehydrogenase (cancer cell lines): significant leakage

Molecule: COc1ccccc1OCC(O)CN1CCN(CC(=O)Nc2c(C)cccc2C)CC1 (stereo not shown) [Ranolazine, reference compound]
- IC50 [2]: 72.5 µM

Molecule: [Ba+2].[Cl-].[Cl-] [Barium Chloride, reference compound]
- IC50 (HEK-Kir2.1): 17.7 µM
